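GI50 marks 50% less growth. At the TGI there is no net growth.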
Assays:
Experiment in all cases: NCI anticancer screen, dose series, 384-well format
IGROV1 ovarian = system: IGROV1 ovarian
SK-MEL-5 melanoma = system: SK-MEL-5 melanoma
BT-549 breast = system: BT-549 breast
MCF7 breast = system: MCF7 breast
M14 melanoma = system: M14 melanoma
UACC-257 melanoma = system: UACC-257 melanoma
HS 578T breast = system: HS 578T breast
SF-539 CNS = system: SF-539 CNS
A549 NSCLC = system: A549 NSCLC
DU-145 prostate = system: DU-145 prostate
EKVX NSCLC = system: EKVX NSCLC
SNB-19 CNS = system: SNB-19 CNS
786-0 renal = system: 786-0 renal
SK-MEL-2 melanoma = system: SK-MEL-2 melanoma
MOLT-4 leukemia = system: MOLT-4 leukemia
CAKI-1 renal = system: CAKI-1 renal
SF-268 CNS = system: SF-268 CNS
HL-60(TB) leukemia = system: HL-60(TB) leukemia
SK-MEL-28 melanoma = system: SK-MEL-28 melanoma
HOP-62 NSCLC = system: HOP-62 NSCLC
SF-295 CNS = system: SF-295 CNS
MALME-3M melanoma = system: MALME-3M melanoma
OVCAR-8 ovarian = system: OVCAR-8 ovarian
NCI-H23 lung = system: NCI-H23 lung
T-47D breast = system: T-47D breast
SR leukemia = system: SR leukemia
SNB-75 CNS = system: SNB-75 CNS
MDA-MB-468 breast = system: MDA-MB-468 breast
SW-620 colon = system: SW-620 colon
NCI-H322M lung = system: NCI-H322M lung
K-562 leukemia = system: K-562 leukemia
HT29 colon = system: HT29 colon
A498 renal = system: A498 renal
TK-10 renal = system: TK-10 renal
HCT-116 colon = system: HCT-116 colon
NCI-H522 lung = system: NCI-H522 lung
MDA-MB-435 melanoma = system: MDA-MB-435 melanoma
RPMI-8226 leukemia = system: RPMI-8226 leukemia
PC-3 prostate = system: PC-3 prostate
HCT-15 colon = system: HCT-15 colon
UO-31 renal = system: UO-31 renal
RXF 393 renal = system: RXF 393 renal
U251 glioblastoma = system: U251 glioblastoma
KM12 colon = system: KM12 colon
NCI-H226 lung = system: NCI-H226 lung
MDA-MB-231 breast = system: MDA-MB-231 breast
OVCAR-4 ovarian = system: OVCAR-4 ovarian
COLO 205 colon = system: COLO 205 colon

In the case of Nc1ncn(C2OC(CO)C(O)C2O)c(=O)n1 (stereo not given), the GI50 (IGROV1 ovarian) was 2.61 µM, the TGI (IGROV1 ovarian) was 10.3 µM and the GI50 (SK-MEL-5 melanoma) was 0.628 µM. It also gave a TGI (SK-MEL-5 melanoma) of 2.12 µM, a GI50 (BT-549 breast) of 0.694 µM and a TGI (BT-549 breast) of 3.31 µM. The GI50 (MCF7 breast) was 1.56 µM, the TGI (MCF7 breast) was over 29.8 µM and the GI50 (M14 melanoma) was 1.45 µM. The TGI (M14 melanoma) was 9.78 µM, the GI50 (UACC-257 melanoma) was 6.88 µM and the TGI (UACC-257 melanoma) was 33.3 µM. For the same molecule, the GI50 (HS 578T breast) was 1.38 µM, the TGI (HS 578T breast) was 7.12 µM and the GI50 (SF-539 CNS) was 2.07 µM. It also gave a TGI (SF-539 CNS) of 6.09 µM, a GI50 (A549 NSCLC) of 3.24 µM and a TGI (A549 NSCLC) of over 38 µM. It also gave a GI50 (DU-145 prostate) of 1.1 µM, a TGI (DU-145 prostate) of 6.53 µM and a GI50 (EKVX NSCLC) of 19.5 µM. For the same molecule, the TGI (EKVX NSCLC) was over 75.8 µM, the GI50 (SNB-19 CNS) was 4.47 µM and the TGI (SNB-19 CNS) was over 42.2 µM. The GI50 ([…]-0 renal) was 1.87 µM, the TGI (786-0 renal) was over 42.3 µM and the GI50 (SK-MEL-2 melanoma) was 0.911 µM. It also gave a TGI (SK-MEL-2 melanoma) of 2.85 µM, a GI50 (MOLT-4 leukemia) of 1.32 µM and a TGI (MOLT-4 leukemia) of 2.72 µM. For the same molecule, the GI50 (CAKI-1 renal) was 0.466 µM, the TGI (CAKI-1 renal) was 4.35 µM and the GI50 (SF-268 CNS) was 4.36 µM. For the same molecule, the TGI (SF-268 CNS) was over 31.9 µM, the GI50 (HL-60(TB) leukemia) was 0.372 µM and the TGI (HL-60(TB) leukemia) was 0.806 µM. The GI50 (SK-MEL-28 melanoma) was 3.33 µM, the TGI (SK-MEL-28 melanoma) was 18 µM and the GI50 (HOP-62 NSCLC) was 0.899 µM. It also gave a TGI (HOP-62 NSCLC) of 3.51 µM, a GI50 (SF-295 CNS) of 2.78 µM and a TGI (SF-295 CNS) of 16.5 µM. The GI50 (MALME-3M melanoma) was 3.3 µM, the TGI (MALME-3M melanoma) was 16.7 µM and the GI50 (OVCAR-8 ovarian) was 1.99 µM. For the same molecule, the TGI (OVCAR-8 ovarian) was 17.8 µM, the GI50 (NCI-H23 lung) was 7.25 µM and the TGI (NCI-H23 lung) was 28.4 µM. The GI50 (T-47D breast) was 4.67 µM, the TGI (T-47D breast) was over 37.6 µM and the GI50 (SR leukemia) was 0.165 µM. It also gave a TGI (SR leukemia) of 0.423 µM, a GI50 (SNB-75 CNS) of 2.23 µM and a GI50 (MDA-MB-468 breast) of 0.529 µM. The TGI (MDA-MB-468 breast) was 1.41 µM, the GI50 (SW-620 colon) was 2.25 µM and the TGI (SW-620 colon) was over 34.7 µM. The GI50 (NCI-H322M lung) was 1.52 µM, the TGI (NCI-H322M lung) was 25.7 µM and the GI50 (K-562 leukemia) was 0.657 µM. For the same molecule, the TGI (K-562 leukemia) was 5.41 µM, the GI50 (HT29 colon) was 3.52 µM and the TGI (HT29 colon) was 30.1 µM. The GI50 (A498 renal) was 2.5 µM, the TGI (A498 renal) was 11.9 µM and the GI50 (TK-10 renal) was 2.3 µM. The TGI (TK-10 renal) was 30.5 µM, the GI50 (HCT-116 colon) was 0.627 µM and the TGI (HCT-116 colon) was 2.57 µM. The GI50 (NCI-H522 lung) was 1.58 µM, the TGI (NCI-H522 lung) was 6.41 µM and the GI50 (MDA-MB-435 melanoma) was 1.71 µM. For the same molecule, the TGI (MDA-MB-435 melanoma) was 8.65 µM, the GI50 (RPMI-8226 leukemia) was 0.138 µM and the TGI (RPMI-8226 leukemia) was 0.59 µM. For the same molecule, the GI50 (PC-3 prostate) was 4.16 µM, the TGI (PC-3 prostate) was 42.1 µM and the GI50 (HCT-15 colon) was 2.11 µM. It also gave a TGI (HCT-15 colon) of 8.05 µM, a GI50 (UO-31 renal) of 2.5 µM and a TGI (UO-31 renal) of 15.1 µM. It also gave a GI50 (RXF 393 renal) of 1.25 µM, a TGI (RXF 393 renal) of 10.9 µM and a GI50 (U251 glioblastoma) of 1.42 µM. For the same molecule, the TGI (U251 glioblastoma) was over 33.2 µM, the GI50 (KM12 colon) was 2.54 µM and the TGI (KM12 colon) was 11.8 µM. The GI50 (NCI-H226 lung) was 4.46 µM, the TGI (NCI-H226 lung) was 27.8 µM and the GI50 (MDA-MB-231 breast) was 1.55 µM. For the same molecule, the TGI (MDA-MB-231 breast) was 17.4 µM, the GI50 (OVCAR-4 ovarian) was 3.33 µM and the TGI (OVCAR-4 ovarian) was 23.8 µM. The GI50 (COLO 205 colon) was 1.41 µM and the TGI (COLO 205 colon) was 10.9 µM.
